Test results from paper PMC7529935 (European journal of medicinal chemistry, 2020).

How the values were obtained:
[1] = test system: HIV/EBOV pseudovirions (EBOV GP); type: cell-based, Zaire Ebolavirus
[2] = test system: HIV/MARV pseudovirions (MARV GP); assay: microbe, parasite or virus in culture; type: cell-based, Marburgvirus; settings: Human immunodeficiency virus 1, A549, 48 h, read-out: IC50 for MARV

| Compound | antiviral activity (anti-filovirus, words) [1] | cytotoxicity (A549 cells) | antiviral activity against EBOV [1] | IC50 [2] |
| --- | --- | --- | --- | --- |
| Cc1cc(=O)oc2cc(OCC(O)CN3CCC(C(N)=O)CC3)ccc12 (centres unmarked) [Compound 19, 1-(2-hydroxy-3-((4-methyl-2-oxo-2H-chromen-7-yl)oxy)propyl)piperidine-4-carboxamide] | lost most of the activity |  |  |  |
| NC(=O)C1CCN(CC(O)COc2ccc3c(C4CC4)cc(=O)oc3c2)CC1 (centres unmarked) [Compound 55, 1-(3-((4-cyclopropyl-2-oxo-2H-chromen-7-yl)oxy)-2-hydroxypropyl)piperidine-4-carboxamide] | lost most of the antiviral activity |  |  |  |
| Cc1c(Cc2ccc(OC(F)(F)F)cc2)c(=O)oc2cc(OCC(O)CNc3nccs3)ccc12 (centres unmarked) [Compound 56, 7-(2-hydroxy-3-(thiazol-2-ylamino)propoxy)-4-methyl-3-(4-(trifluoromethoxy)benzyl)-2H-chromen-2-one] | strong activity | low cytotoxicity |  |  |
| Cc1c(Cc2ccc(OC(F)(F)F)cc2)c(=O)oc2cc(OCC(O)CN3CCC(C(N)=O)CC3)ccc12 (centres unmarked) [Compound 32, 1-(2-hydroxy-3-((4-methyl-2-oxo-3-(4-(trifluoromethoxy)benzyl)-2H-chromen-7-yl)oxy)propyl)piperidine-4-carboxamide] |  | low cytotoxicity | strongest antiviral activity against EBOV | 1.5 µM |
| Cc1c(Cc2ccccc2)c(=O)oc2cc(OCC(O)CNCCc3ccncc3)ccc12 (centres unmarked) [Compound 13, 3-benzyl-7-(2-hydroxy-3-((2-(pyridin-4-yl)ethyl)amino)propoxy)-4-methyl-2H-chromen-2-one] |  |  | best inhibitory activity on EBOV entry |  |
